How the values were obtained:
human 5HT6 = target: T1, human 5HT6 (Homo sapiens, UniProt P50406); test: Radioligand binding, 5-HT6 receptor; conditions: for Ki: Table 7, read-out: h5HT6 Ki; for selectivity ratio h5HT6: Table 8, Ki h5HT6 divided by Ki hGAL3
T1 construct: expressed in transfected cells
Method: Other 5-HT Receptors: Other serotonin receptor binding assays were performed according to published methods: rat 5HT2C receptor (Julius et al., 1988); and 5-HT6 (Monsma, et al., 1993). The binding assays using the 5-HT4 receptor were performed according to the procedures described in U.S. Patent No. 5,766,879, the disclosure of which is hereby incorporated by reference in its entirety into this application.
(§1) Binding data were analyzed using nonlinear regression and statistical techniques available in the GraphPAD Prism package (San Diego, CA). Enzymatic assay data were derived from a standard curve of reference compound data.

human α1A adrenoceptor = target: T2, human α1A adrenoceptor (Homo sapiens, UniProt P35348); test: Radioligand binding, α1A adrenergic receptor; conditions: for Ki: Table 9, read-out: hα1A Ki; for selectivity ratio hα1A: Table 10, Ki hα1A divided by Ki hGAL3
T2 construct: expressed in transfected cells
T2 sequence (P35348 1-466): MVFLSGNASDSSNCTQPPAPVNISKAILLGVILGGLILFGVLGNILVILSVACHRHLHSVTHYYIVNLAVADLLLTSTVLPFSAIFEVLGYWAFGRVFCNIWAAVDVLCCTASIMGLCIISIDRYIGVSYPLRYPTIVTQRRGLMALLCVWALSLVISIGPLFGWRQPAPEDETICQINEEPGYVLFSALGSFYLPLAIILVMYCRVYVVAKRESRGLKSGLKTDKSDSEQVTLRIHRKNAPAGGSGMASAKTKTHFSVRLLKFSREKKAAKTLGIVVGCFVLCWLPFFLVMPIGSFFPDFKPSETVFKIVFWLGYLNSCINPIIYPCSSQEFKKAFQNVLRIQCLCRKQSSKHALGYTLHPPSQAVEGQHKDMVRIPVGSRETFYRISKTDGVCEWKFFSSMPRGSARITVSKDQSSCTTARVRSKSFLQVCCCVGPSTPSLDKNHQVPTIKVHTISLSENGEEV
From the text: (§2) Other receptors: Cell membranes expressing human dopamine D1, D2, D4 and rat D3 receptors were purchased through BioSignal, Inc. (Montreal, Canada). Binding assays using the histamine H1 receptor; dopamine receptors; and α1A, α1E, and α2 adrenergic receptors may be carried out according to the procedures described in U.S. Patent No. 5,780,485, the disclosure of which is hereby incorporated by reference in its entirety into this application. Binding assays using the dopamine D5 receptor may be carried out according to the procedures described in U.S. Patent No. 5,882,855, the disclosure of which is hereby incorporated by reference in its entirety into this application. Binding assays for the human α1D adrenergic receptor may be carried out according to the procedures described in U.S. Patent No. 6,156,518, the disclosure of which is hereby incorporated by reference in its entirety into this application.
as §1

human α2B adrenoceptor = target: T3, human α2B adrenoceptor (Homo sapiens, UniProt P18089); test: Radioligand binding, α2B adrenergic receptor; conditions: for Ki: Table 9, read-out: hα2B Ki; for selectivity ratio hα2B: Table 10, Ki hα2B divided by Ki hGAL3
T3 construct: expressed in transfected cells
T3 sequence (P18089 1-450): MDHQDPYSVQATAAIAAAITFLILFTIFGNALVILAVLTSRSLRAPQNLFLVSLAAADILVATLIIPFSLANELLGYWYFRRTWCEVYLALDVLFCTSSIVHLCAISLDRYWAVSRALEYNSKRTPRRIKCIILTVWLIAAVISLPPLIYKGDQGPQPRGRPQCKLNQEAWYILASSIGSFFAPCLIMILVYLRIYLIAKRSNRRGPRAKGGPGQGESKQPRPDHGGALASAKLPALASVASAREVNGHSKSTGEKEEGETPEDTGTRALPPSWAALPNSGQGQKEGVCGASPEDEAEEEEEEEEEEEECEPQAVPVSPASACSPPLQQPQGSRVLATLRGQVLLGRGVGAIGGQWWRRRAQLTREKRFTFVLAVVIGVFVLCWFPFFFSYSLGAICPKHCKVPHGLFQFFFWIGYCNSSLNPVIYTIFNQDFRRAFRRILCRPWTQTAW
From the text: as §2, §1

human dopamine D2 = target: T4, human dopamine D2 (Homo sapiens, UniProt P14416); test: Radioligand binding, dopamine D2 receptor; conditions: for Ki: Table 9, read-out: hD2 Ki; for selectivity ratio hD2: Table 10, Ki hD2 divided by Ki hGAL3
T4 construct: purchased BioSignal, Inc. (Montreal, Canada)
From the text: as §2, §1

human 5HT1F = target: T5, human 5HT1F (Homo sapiens, UniProt P30939); test: Radioligand binding, 5HT1F receptor ([3H]-serotonin); conditions: for Ki: Table 7, read-out: h5HT1F Ki; for selectivity ratio h5HT1F: Table 8, Ki h5HT1F divided by Ki hGAL3
T5 construct: expressed in transfected cells
T5 sequence (P30939 1-366): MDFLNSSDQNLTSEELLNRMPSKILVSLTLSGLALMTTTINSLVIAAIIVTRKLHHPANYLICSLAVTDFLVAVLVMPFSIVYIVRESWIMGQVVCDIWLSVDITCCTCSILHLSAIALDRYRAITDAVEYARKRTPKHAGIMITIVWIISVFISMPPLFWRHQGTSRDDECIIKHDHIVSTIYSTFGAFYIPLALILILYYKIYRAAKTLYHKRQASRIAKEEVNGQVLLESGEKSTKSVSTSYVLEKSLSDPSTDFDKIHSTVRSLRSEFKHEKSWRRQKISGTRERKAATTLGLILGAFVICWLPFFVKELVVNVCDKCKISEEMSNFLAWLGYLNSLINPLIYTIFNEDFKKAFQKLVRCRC
Method: Human 5HT1B, 5HT1D, 5HT1E, 5HT1F, and 5HT7 Receptors: The cell lysates of LM(tk-) clonal cell line stably transfected with the genes encoding each of these 5HT receptor-subtypes were prepared as described above. Cell membranes were suspended in 50mM Tris-HCl buffer (pH 7.4 at 37°C) containing 10 mM MgCl2, 0.2 mM EDTA, 10 µM pargyline, and 0.1% ascorbate. […] Nonspecific binding was determined in the presence of 10 µM serotonin. The bound radioligand was separated by filtration through GF/B filters using a cell harvester.
as §1

T4 sequence (P14416 whole entry): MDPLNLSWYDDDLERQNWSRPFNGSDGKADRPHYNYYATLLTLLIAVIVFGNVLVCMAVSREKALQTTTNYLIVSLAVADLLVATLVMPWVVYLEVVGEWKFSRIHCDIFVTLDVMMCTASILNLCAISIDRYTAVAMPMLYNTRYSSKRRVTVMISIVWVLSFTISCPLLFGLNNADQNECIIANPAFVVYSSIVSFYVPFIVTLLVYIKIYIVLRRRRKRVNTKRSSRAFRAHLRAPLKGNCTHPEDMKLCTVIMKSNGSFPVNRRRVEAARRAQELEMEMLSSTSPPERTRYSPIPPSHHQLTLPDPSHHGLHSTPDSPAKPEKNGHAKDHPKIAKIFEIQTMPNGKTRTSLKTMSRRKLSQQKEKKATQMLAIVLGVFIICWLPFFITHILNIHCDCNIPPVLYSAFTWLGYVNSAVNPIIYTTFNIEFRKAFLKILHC
T1 sequence (P50406 whole entry): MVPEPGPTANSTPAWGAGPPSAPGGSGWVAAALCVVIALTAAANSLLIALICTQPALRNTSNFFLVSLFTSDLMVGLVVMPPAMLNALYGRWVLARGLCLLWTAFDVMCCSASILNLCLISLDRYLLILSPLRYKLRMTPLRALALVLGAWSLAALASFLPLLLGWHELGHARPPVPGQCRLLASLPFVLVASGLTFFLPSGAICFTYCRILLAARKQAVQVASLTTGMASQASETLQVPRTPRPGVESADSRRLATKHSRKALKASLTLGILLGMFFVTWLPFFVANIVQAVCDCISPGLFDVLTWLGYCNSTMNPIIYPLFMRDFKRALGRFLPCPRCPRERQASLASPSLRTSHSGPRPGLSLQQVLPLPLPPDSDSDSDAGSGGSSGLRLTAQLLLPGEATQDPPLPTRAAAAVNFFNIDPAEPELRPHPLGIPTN

Row | Structure (SMILES) | Ki (human 5HT6) | selectivity ratio h5HT6 (human 5HT6) | Ki (human α1A adrenoceptor) | selectivity ratio hα1A (human α1A adrenoceptor) | Ki (human α2B adrenoceptor) | selectivity ratio hα2B (human α2B adrenoceptor) | Ki (human dopamine D2) | selectivity ratio hD2 (human dopamine D2) | Ki (human 5HT1F) | selectivity ratio h5HT1F (human 5HT1F)
1 | Cc1ccc(Nc2cc(N3CCCCC3)nc(N(C)CCc3ccccc3)n2)cc1 [Example 22] | 2.26 µM | >30 | 1.28 µM | >30 | 5.76 µM | >100 | 1.5 µM | >30 | 5.77 µM | >100
2 | O=C1C(=Nc2ccc(Br)cc2)c2ccccc2N1c1ccccc1 [Example 98, 3-[(4-BROMOPHENYL)IMINO]-1-PHENYL-1,3-DIHYDRO-2H-INDOL-2-ONE] | 14 µM | >100 | 14.5 µM | >100 | > 50 µM | >100 | 3.79 µM | >100 | 3.36 µM | >30
3 | O=C1C(=Nc2ccc(C(F)(F)F)cc2)c2ccccc2N1c1ccccc1 [Example 95, 1-PHENYL-3-[[4-(TRIFLUOROMETHYL)PHENYL]IMINO]-1,3-DIHYDRO-2H-INDOL-2-ONE] | 21.5 µM | >100 | 13.1 µM | >100 | > 50 µM | >100 | 9.72 µM | >100 | 4.45 µM | >100
4 | CN(C)c1cc(Nc2ccc(Cl)c(Cl)c2)nc(Nc2ccccc2)n1 [Example 60] | 47.5 µM | >100 | 13.6 µM | >100 | > 50 µM | >100 | 26.8 µM | >100 | 2.12 µM | 25
5 | CN(CCc1c[nH]c2ccccc12)c1nc(Nc2ccc(F)c(F)c2)cc(N2CCCCC2)n1 [Example 15] | 1.46 µM | 20 | 3.39 µM | 46 | 24.5 µM | >100 | 2.18 µM | 30 | 4.19 µM | >30
6 | Cc1ccc(Nc2cc(N3CCCCC3)nc(N(C)CCc3c[nH]c4ccccc34)n2)cc1 [Example 11] | 0.8 µM | 9 | 0.926 µM | 10 | 10.2 µM | >100 | 0.782 µM | 9 | 1.78 µM | 20

— patent EP2140864A2 (H. Lundbeck A/S, priority 2001, dated 2002)
